Test results taken from US20250214969A1, “PROTEIN DEGRADERS AND USES THEREOF” (Kymera Therapeutics, Inc., priority 2022, published 2025).

Assays:
[1] = target: T1, truncated His-MBP-Tev-KLHDC2 (residues 1-363) (Homo sapiens, UniProt Q9Y2U9); assay: KLHDC2 HTRF binding assay; settings: 1 nM KLHDC2 (residues 1-363), fluorescein-labeled diglycine peptide probe
T1 construct: truncated His -MBP-Tev-KLHDC2 (residues 1-363) purified from E. coli; made in house; host or cells: E. coli
T1 sequence (Q9Y2U9 1-363): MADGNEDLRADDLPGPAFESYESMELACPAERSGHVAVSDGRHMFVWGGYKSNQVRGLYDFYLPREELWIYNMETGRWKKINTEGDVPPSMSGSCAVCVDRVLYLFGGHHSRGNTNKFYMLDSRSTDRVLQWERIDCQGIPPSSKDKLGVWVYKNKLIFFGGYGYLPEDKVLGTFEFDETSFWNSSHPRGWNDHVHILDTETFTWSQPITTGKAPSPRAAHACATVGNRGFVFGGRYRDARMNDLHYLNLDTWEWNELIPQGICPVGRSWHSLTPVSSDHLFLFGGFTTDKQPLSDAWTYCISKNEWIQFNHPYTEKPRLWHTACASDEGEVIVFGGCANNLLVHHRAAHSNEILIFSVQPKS

[2] = target: T1, truncated His-MBP-Tev-KLHDC2 (residues 1-363); assay: KLHDC2 FP competition binding assay; settings: 15 nM KLHDC2 (residues 1-363), 10 nM fluorescein-labeled diglycine peptide probe, read-out: KLHDC2 binding Human FP: average external IC50

SMILES	IC50 [1]	IC50 [2]
CN(C)C(=O)Cc1ccc(=O)n(CC(=O)O)c1 [I-284]	> 5 µM	> 5 µM
O=C(O)Cn1cc(-c2cncc(CCc3ccccc3)c2)ccc1=O [I-285]	> 5 µM	> 5 µM
O=C(O)Cn1cc(-c2cncc(/C=C/c3ccccc3)c2)ccc1=O [I-287]	> 5 µM	> 5 µM
O=C(O)Cn1cc(CC(=O)N2CCCCC2)ccc1=O [I-290]	> 5 µM	> 5 µM
O=C(O)Cn1cc(-c2cccc(CCc3ccccc3)c2)ccc1=O [I-295]	> 5 µM	> 5 µM
O=C(O)Cn1cc(-c2cccc(/C=C/c3ccccc3)c2)ccc1=O [I-296]	> 5 µM	> 5 µM
O=C(O)Cn1cc(-c2cccc(OCc3ccccc3)c2)ccc1=O [I-300]	> 5 µM	> 5 µM
O=C(O)Cn1cc(-c2cncc(OCc3ccccc3)c2)ccc1=O [I-301]	> 5 µM	> 5 µM
O=C(O)Cn1cc(-c2cccc(CN3CCCCC3)c2)ccc1=O [I-303]	> 5 µM	> 5 µM
O=C(O)Cn1cc(-c2cccc(CN3CCOCC3)c2)ccc1=O [I-304]	> 5 µM	> 5 µM
CN1CCN(Cc2cccc(-c3ccc(=O)n(CC(=O)O)c3)c2)CC1 [I-305]	> 5 µM	> 5 µM
Cc1ccc(CC(C)(C)O)cc1-c1ccc(=O)n(CC(=O)O)c1 [I-308]	> 5 µM	> 5 µM
O=C(O)Cn1cc(-c2ccc(N3CCOCC3)cc2)ccc1=O [I-312]	> 5 µM	> 5 µM
O=C(O)Cn1cc(-c2cccc(N3CCCCC3)c2)ccc1=O [I-314]	> 5 µM	> 5 µM
O=C(O)Cn1cc(-c2cccc(N3CCOCC3)c2)ccc1=O [I-322]	> 5 µM	> 5 µM
Cc1cc(-c2ccc(=O)n(CC(=O)O)c2)ccc1OCc1ccccc1 [I-323]	> 5 µM	> 5 µM
O=C(O)Cc1cccc(NC(=O)c2ccccc2)c1 [I-325]	> 5 µM	> 5 µM
COc1ccc(-c2ccc(=O)n(CC(=O)O)c2)cn1 [I-327]	> 5 µM	> 5 µM

SMILES	IC50 [1]	IC50 [2]
Cc1cc(=O)n(CC(=O)O)cc1-c1cc(F)c(O)c(F)c1 [I-329]	> 5 µM	> 5 µM
Cc1ccc(C)c(-c2cn(CC(=O)O)c(=O)cc2C)c1 [I-330]	> 5 µM	> 5 µM
Cn1ccc2c(-c3ccc(=O)n(CC(=O)O)c3)cccc21 [I-333]	> 5 µM	> 5 µM
O=C(O)Cc1cc(-c2ccccc2)ccc1O [I-335]	> 5 µM	> 5 µM
Cc1ccccc1-c1ccc(O)c(CC(=O)O)c1 [I-336]	> 5 µM	> 5 µM
Cc1cccc(-c2ccc(O)c(CC(=O)O)c2)c1 [I-337]	> 5 µM	> 5 µM
Cc1ccc(C)c(-c2ccc(O)c(CC(=O)O)c2)c1 [I-338]	> 5 µM	> 5 µM
O=C(O)Cn1cc(-c2cccc3[nH]ccc23)ccc1=O [I-339]	> 5 µM	> 5 µM
CCc1ccc(C)c(-c2ccc(=O)n(CC(=O)O)c2)c1 [I-340]	> 5 µM	> 5 µM
COc1ccc(C#N)cc1-c1ccc(=O)n(CC(=O)O)c1 [I-341]	> 5 µM	> 5 µM
Cc1ccc(F)c(-c2ccc(=O)n(CC(=O)O)c2)c1 [I-343]	> 5 µM	> 5 µM
COc1c(F)cc(-c2ccc(=O)n(CC(=O)O)c2)cc1F [I-347]	> 5 µM	> 5 µM
Cc1cc(-c2ccc(=O)n(CC(=O)O)c2)c(C)cc1F [I-348]	> 5 µM	> 5 µM
CCCc1ccc(C)c(-c2ccc(=O)n(CC(=O)O)c2)c1 [I-349]	> 5 µM	> 5 µM
Cc1ccc(C(F)(F)F)cc1-c1ccc(=O)n(CC(=O)O)c1 [I-350]	> 5 µM	> 5 µM
O=C(O)Cc1cccc(NC(=O)CCc2cccc(OC3CCCC3)c2)c1 [I-351]	> 5 µM	> 5 µM
COc1ccc(-c2ccccc2C)cc1CC(=O)O [I-352]	> 5 µM	> 5 µM
COc1ccc(-c2cccc(C)c2)cc1CC(=O)O [I-353]	> 5 µM	> 5 µM

Continued, values first:

IC50 [1]	IC50 [2]	SMILES
0.5 to 5 µM	> 5 µM	O=C(O)Cn1cc(NC(=O)c2cccc(-c3ccc(F)cc3)c2)ccc1=O [I-276]
> 5 µM	> 5 µM	O=C(O)Cn1cc(CC(=O)N2CCc3ccccc32)ccc1=O [I-277]
> 5 µM	> 5 µM	O=C(O)Cn1cc(NC(=O)COc2ccc(Cl)cc2)ccc1=O [I-278]
> 5 µM	> 5 µM	O=C(O)Cn1cc(NC(=O)COc2ccccc2F)ccc1=O [I-279]
> 5 µM	> 5 µM	O=C(O)Cn1cc(NC(=O)c2cccc(-c3ccncc3)c2)ccc1=O [I-280]
0.5 to 5 µM	0.5 to 5 µM	O=C(O)Cn1cc(NC(=O)c2cccc(-c3cccnc3)c2)ccc1=O [I-281]
> 5 µM	> 5 µM	O=C(O)Cn1cc(NC(=O)COc2ccccc2Cl)ccc1=O [I-282]
> 5 µM	> 5 µM	O=C(O)Cn1cc(NC(=O)COc2ccc(F)cc2)ccc1=O [I-283]
> 5 µM	> 5 µM	CN(C(=O)c1ccccc1)c1ccc(=O)n(CC(=O)O)c1 [I-286]
> 5 µM	> 5 µM	O=C(O)Cn1cc(NC(=O)c2cccc(-c3ccccc3F)c2)ccc1=O [I-288]
> 5 µM	> 5 µM	Cc1ccccc1-c1cccc(C(=O)Nc2ccc(=O)n(CC(=O)O)c2)c1 [I-289]
> 5 µM	> 5 µM	O=C(O)Cn1cc(-c2cccc(CO)c2)ccc1=O [I-291]
> 5 µM	> 5 µM	COc1cccc(-c2cccc(C(=O)Nc3ccc(=O)n(CC(=O)O)c3)c2)c1 [I-292]
0.5 to 5 µM	> 5 µM	O=C(O)Cn1cc(NC(=O)c2cccc(-c3cccc(Cl)c3)c2)ccc1=O [I-293]
> 5 µM	> 5 µM	Cc1cccc(-c2cccc(C(=O)Nc3ccc(=O)n(CC(=O)O)c3)c2)c1 [I-294]
0.5 to 5 µM	> 5 µM	Cc1cc(C(=O)Nc2ccc(=O)n(CC(=O)O)c2)sc1-c1ccccc1 [I-297]
> 5 µM	> 5 µM	O=C(O)Cn1cc(NC(=O)c2cccc(-c3cccc(F)c3)c2)ccc1=O [I-298]
> 5 µM	> 5 µM	O=C(O)Cn1cc(CNC(=O)c2ccccc2)ccc1=O [I-299]
> 5 µM	> 5 µM	NC(=O)Cc1cccc(-c2ccc(=O)n(CC(=O)O)c2)c1 [I-302]
> 5 µM	> 5 µM	O=C(O)Cn1cc(CC(=O)Nc2ccccc2)ccc1=O [I-306]
> 5 µM	> 5 µM	O=C(O)Cn1cc(N2Cc3ccccc3C2=O)ccc1=O [I-307]

IC50 [1]	IC50 [2]	SMILES
0.5 to 5 µM	> 5 µM	Cc1c(Cl)cccc1OCC(=O)Nc1ccc(=O)n(CC(=O)O)c1 [I-309]
> 5 µM	> 5 µM	CC(Cc1ccccc1Cl)C(=O)Nc1ccc(=O)n(CC(=O)O)c1 (stereo not drawn) [I-310]
0.5 to 5 µM	> 5 µM	O=C(O)Cn1cc(NC(=O)c2ccc(-c3ccccc3)c(F)c2)ccc1=O [I-311]
> 5 µM	> 5 µM	NC(=O)Cc1ccc(-c2ccc(=O)n(CC(=O)O)c2)cc1 [I-313]
0.5 to 5 µM	> 5 µM	O=C(O)Cn1cc(NC(=O)c2cccc(-c3ccccc3)c2)ccc1=O [I-315]
> 5 µM	> 5 µM	Cc1cc(=O)n(CC(=O)O)cc1NC(=O)c1ccccc1 [I-316]
> 5 µM	> 5 µM	O=C(O)Cn1cc(NS(=O)(=O)c2ccccc2)ccc1=O [I-317]
> 5 µM	> 5 µM	CCc1ccccc1C(=O)Nc1ccc(=O)n(CC(=O)O)c1 [I-318]
> 5 µM	> 5 µM	Cc1cccc(Cl)c1C(=O)Nc1ccc(=O)n(CC(=O)O)c1 [I-319]
> 5 µM	> 5 µM	COc1cc2ccccc2cc1C(=O)Nc1ccc(=O)n(CC(=O)O)c1 [I-320]
> 5 µM	> 5 µM	O=C(O)Cn1cc(NC(=O)c2ccccc2C(F)F)ccc1=O [I-321]
> 5 µM	> 5 µM	N#Cc1cccc(-c2ccc(=O)n(CC(=O)O)c2)c1 [I-324]
> 5 µM	> 5 µM	O=C(O)Cn1cc(/C=C/c2ccccc2)ccc1=O [I-326]
> 5 µM	> 5 µM	O=C(O)Cn1cc(NC(=O)C(c2ccccc2)c2ccccc2)ccc1=O [I-328]
> 5 µM	> 5 µM	CC(C)=Cc1cccc(-c2ccc(=O)n(CC(=O)O)c2)c1 [I-331]
> 5 µM	> 5 µM	Nc1ccc(-c2ccc(=O)n(CC(=O)O)c2)cc1 [I-332]
> 5 µM	> 5 µM	Cc1ccc(CC(C)C)cc1-c1ccc(=O)n(CC(=O)O)c1 [I-334]
> 5 µM	> 5 µM	Cc1ccc(Cl)c(-c2ccc(=O)n(CC(=O)O)c2)c1 [I-342]
> 5 µM	> 5 µM	CC(C)Cc1cccc(-c2ccc(=O)n(CC(=O)O)c2)c1 [I-344]
> 5 µM	> 5 µM	CCc1cccc(-c2ccc(=O)n(CC(=O)O)c2)c1 [I-345]
> 5 µM	> 5 µM	Cc1cc(O)ccc1-c1ccc(=O)n(CC(=O)O)c1 [I-346]
